We go through ten compounds from patent US20230013823A1, “INHIBITORS OF HUMAN IMMUNODEFICIENCY VIRUS REPLICATION” (VIV HEALTHCARE UK (No. 5) LIMITED, priority 2019, published 2023).

In data set [1] the test system is recombinant NL4-3 virus (Renilla luciferase in nef). The data set can be described thus: HIV cell culture assay (antiviral activity, luciferase readout in MT-2 cells). The format is cell-based. Particulars: Renilla, NL43. How it is done:
HIV cell culture assay—MT=2 cells, 293T cells and the proviral DNA clone of NL4-3 virus were obtained from the NIH AIDS Research and Reference Reagent Program. MT=2 cells were propagated in RPMI 1640 media supplemented with 10% heat inactivated fetal bovine serum (FBS), […] penicillin G and up to 100 units/mL streptomycin. The 293T cells were propagated in DMEM media supplemented with 10% heat inactivated FBS, […] penicillin G and […] streptomycin. A recombinant NL4-3 proviral clone, in which a section of the nef gene was replaced with the Renilla luciferase gene, was used to make the reference virus used in these studies. The recombinant virus was prepared through transfection of the recombinant NL4-3 proviral clone into 293T cells using Transit-293 Transfection Reagent from Mirus Bio LLC (Madison, Wis.). Supernatent was harvested after 2-3 days and the amount of virus present was titered in MT=2 cells using luciferase enzyme activity as a marker by measuring luciferase enzyme activity. Luciferase was quantitated using the EnduRen Live Cell Substrate from Promega (Madison, Wis.). Antiviral activities of compounds toward the recombinant virus were quantified by measuring luciferase activity in MT=2 cells infected for 4-5 days with the recombinant virus in the presence of serial dilutions of the compound.
The 50% effective concentration (EC50) was calculated by using the exponential form of the median effect equation where (Fa)=1/[1+(ED50/drug conc.)m] (Johnson V A, Byington R T. Infectivity Assay. In Techniques in HIV Research. ed. Aldovini A, Walker B D. 71-76. New York: Stockton Press. 1990). The 50% inhibitory concentration (EC50) was calculated by using the exponential form of the median effect equation where percent inhibition=1/[1+(EC50/drug concentration)m], where m is a parameter that reflects the slope of the concentration-response curve.

The nature of data set [2]: Compound cytotoxicity, XTT-based colorimetric assay. The conditions noted are these: human; uninfected MT2 cells, day 4, XTT. It counts as cell-based. As to the method: Compound cytotoxicity and the corresponding CC50 values were determined using the same protocol as described in the antiviral assay except that uninfected cells were used. Cytotoxicity was assessed on day 4 in uninfected MT2 cells by using an XTT (2,3-bis[2-Methoxy-4-nitro-5-sulfophenyl]-2H-tetrazolium-5-carboxyanilide inner salt)-based colorimetric assay (Sigma-Aldrich, St Louis, Mo.).

Structures are written as SMILES.

For `Cn1nc(NS(C)(=O)=O)c2c(Cl)ccc(-n3c([C@H](Cc4cc(F)cc(F)c4)NC(=O)Cn4nc(C(F)F)c5c4C(F)(F)[C@@H]4C[C@H]54)nc4cc(-c5ncc(F)cn5)ccc4c3=O)c21` (atropisomer, axis not shown; (P)) [Example 24, N—((S)-1-((3P)-3-(4-chloro-1-methyl-3-(methylsulfonamido)-1H-indazol-7-yl)-7-(5-fluoropyrimidin-2-yl)-4-oxo-3,4-dihydroquinazolin-2-yl)-2-(3,5-difluorophenyl)ethyl)-2-((3bS,4aR)-3-(difluoromethyl)-5,5-difluoro-3b,4,4a,5-tetrahydro-1H-cyclopropa[3,4]cyclopenta[1,2-c]pyrazol-1-yl)acetamide], the EC50 – broadly, the concentration that produces a half-maximal response – in data set [1] was determined as 0.045 nM. For the same compound, in data set [2], the CC50 (commonly the concentration at which the toxic effect on the cells reaches its halfway point) at 4 days is above 100 nM.

Take `Cn1nc(NS(C)(=O)=O)c2c(Cl)ccc(-n3c([C@H](Cc4cc(F)cc(F)c4)NC(=O)Cn4nc(C(F)F)c5c4C(F)(F)[C@@H]4C[C@H]54)nc4cc(-c5ccn(CCCC(F)(F)F)n5)ccc4c3=O)c21` (atropisomer, axis not shown; (P)) [Example 53, N—((S)-1-((3P)-3-(4-chloro-1-methyl-3-(methylsulfonamido)-1H-indazol-7-yl)-4-oxo-7-(1-(4,4,4-trifluorobutyl)-1H-pyrazol-3-yl)-3,4-dihydroquinazolin-2-yl)-2-(3,5-difluorophenyl)ethyl)-2-((3bS,4aR)-3-(difluoromethyl)-5,5-difluoro-3b,4,4a,5-tetrahydro-1H-cyclopropa[3,4]cyclopenta[1,2-c]pyrazol-1-yl)acetamide]: in data set [1], the EC50 worked out at 0.1 nM. The compound further yielded a CC50 at 4 days in data set [2] above 100 nM.

As for `Cn1nc(NS(C)(=O)=O)c2c(Cl)ccc(-n3c([C@H](Cc4cc(F)cc(F)c4)NC(=O)Cn4nc(C(F)F)c5c4C(F)(F)[C@@H]4C[C@H]54)nc4cc(-c5cnn(CCF)c5)ccc4c3=O)c21` (atropisomer, axis not shown; (P)) [Example 42, N—((S)-1-((3P)-3-(4-chloro-1-methyl-3-(methylsulfonamido)-1H-indazol-7-yl)-7-(1-(2-fluoroethyl)-1H-pyrazol-4-yl)-4-oxo-3,4-dihydroquinazolin-2-yl)-2-(3,5-difluorophenyl)ethyl)-2-((3bS,4aR)-3-(difluoromethyl)-5,5-difluoro-3b,4,4a,5-tetrahydro-1H-cyclopropa[3,4]cyclopenta[1,2-c]pyrazol-1-yl)acetamide], the concentration giving a half-maximal response (EC50) in data set [1] was found to be 0.068 nM. The compound further gave a CC50 at 4 days in data set [2] above 100 nM.

In the case of `Cn1nc(NS(C)(=O)=O)c2c(Cl)ccc(-n3c([C@H](Cc4cc(F)cc(F)c4)NC(=O)Cn4nc(C(F)F)c5c4C(F)(F)[C@@H]4C[C@H]54)nc4cc(-c5ccnc(C(F)F)n5)ccc4c3=O)c21` (atropisomer, axis not shown; (P)) [Example 56, N—((S)-1-((3P)-3-(4-chloro-1-methyl-3-(methylsulfonamido)-1H-indazol-7-yl)-7-(2-(difluoromethyl)pyrimidin-4-yl)-4-oxo-3,4-dihydroquinazolin-2-yl)-2-(3,5-difluorophenyl)ethyl)-2-((3bS,4aR)-3-(difluoromethyl)-5,5-difluoro-3b,4,4a,5-tetrahydro-1H-cyclopropa[3,4]cyclopenta[1,2-c]pyrazol-1-yl)acetamide], the EC50 in data set [1] was determined as 0.017 nM. Moreover, the CC50 at 4 days in data set [2] is above 100 nM.

`Cn1nc(NS(C)(=O)=O)c2c(Cl)ccc(-n3c([C@H](Cc4cc(F)cc(F)c4)NC(=O)Cn4nc(C(F)F)c5c4C(F)(F)[C@@H]4C[C@H]54)nc4cc(-c5cccc(C(C)(F)F)n5)ccc4c3=O)c21` (atropisomer, axis not shown; (P)) [Example 28, N—((S)-1-((3P)-3-(4-chloro-1-methyl-3-(methylsulfonamido)-1H-indazol-7-yl)-7-(6-(1,1-difluoroethyl)pyridin-2-yl)-4-oxo-3,4-dihydroquinazolin-2-yl)-2-(3,5-difluorophenyl)ethyl)-2-((3bS,4aR)-3-(difluoromethyl)-5,5-difluoro-3b,4,4a,5-tetrahydro-1H-cyclopropa[3,4]cyclopenta[1,2-c]pyrazol-1-yl)acetamide]: in data set [1], the EC50 was found to be 0.12 nM. In addition, in data set [2], the CC50 at 4 days was above 100 nM.

In the case of `COc1nccc(-c2ccc3c(=O)n(-c4ccc(Cl)c5c(NS(C)(=O)=O)nn(C)c45)c([C@H](Cc4cc(F)cc(F)c4)NC(=O)Cn4nc(C(F)F)c5c4C(F)(F)[C@@H]4C[C@H]54)nc3c2)n1` (atropisomer, axis not shown; (P)) [Example 5, N—((S)-1-((3P)-3-(4-chloro-1-methyl-3-(methylsulfonamido)-1H-indazol-7-yl)-7-(2-methoxypyrimidin-4-yl)-4-oxo-3,4-dihydroquinazolin-2-yl)-2-(3,5-difluorophenyl)ethyl)-2-((3bS,4aR)-3-(difluoromethyl)-5,5-difluoro-3b,4,4a,5-tetrahydro-1H-cyclopropa[3,4]cyclopenta[1,2-c]pyrazol-1-yl)acetamide], the EC50 in data set [1] was 0.083 nM. In addition, in data set [2], the CC50 at 4 days was above 500 nM.

For the compound `Cn1nc(NS(C)(=O)=O)c2c(Cl)ccc(-n3c([C@H](Cc4cc(F)cc(F)c4)NC(=O)Cn4nc(C(F)F)c5c4C(F)(F)[C@@H]4C[C@H]54)nc4cc(-c5cncc(C(F)F)c5)ccc4c3=O)c21` (atropisomer, axis not shown; (P)) [Example 17, N—((S)-1-((3P)-3-(4-chloro-1-methyl-3-(methylsulfonamido)-1H-indazol-7-yl)-7-(5-(difluoromethyl)pyridin-3-yl)-4-oxo-3,4-dihydroquinazolin-2-yl)-2-(3,5-difluorophenyl)ethyl)-2-((3bS,4aR)-3-(difluoromethyl)-5,5-difluoro-3b,4,4a,5-tetrahydro-1H-cyclopropa[3,4]cyclopenta[1,2-c]pyrazol-1-yl)acetamide], the EC50 in data set [1] was 0.078 nM. The CC50 at 4 days in data set [2] is above 500 nM.

For the compound `CCC(F)(F)Cn1ccc(-c2ccc3c(=O)n(-c4ccc(Cl)c5c(NS(C)(=O)=O)nn(C)c45)c([C@H](Cc4cc(F)cc(F)c4)NC(=O)Cn4nc(C(F)F)c5c4C(F)(F)[C@@H]4C[C@H]54)nc3c2)n1` (atropisomer, axis not shown; (P)) [Example 49, N—((S)-1-((3P)-3-(4-chloro-1-methyl-3-(methylsulfonamido)-1H-indazol-7-yl)-7-(1-(2,2-difluorobutyl)-1H-pyrazol-3-yl)-4-oxo-3,4-dihydroquinazolin-2-yl)-2-(3,5-difluorophenyl)ethyl)-2-((3bS,4aR)-3-(difluoromethyl)-5,5-difluoro-3b,4,4a,5-tetrahydro-1H-cyclopropa[3,4]cyclopenta[1,2-c]pyrazol-1-yl)acetamide], in data set [1], the concentration for a half-maximal effect (EC50) was 0.081 nM. For the same compound, the CC50 at 4 days in data set [2] was above 100 nM.

In the case of `Cn1nc(NS(C)(=O)=O)c2c(Cl)ccc(-n3c([C@H](Cc4cc(F)cc(F)c4)NC(=O)Cn4nc(C(F)F)c5c4C(F)(F)[C@@H]4C[C@H]54)nc4cc(-c5ccc(F)nc5F)ccc4c3=O)c21` (atropisomer, axis not shown; (P)) [Example 6, N—((S)-1-((3P)-3-(4-chloro-1-methyl-3-(methylsulfonamido)-1H-indazol-7-yl)-7-(2,6-difluoropyridin-3-yl)-4-oxo-3,4-dihydroquinazolin-2-yl)-2-(3,5-difluorophenyl)ethyl)-2-((3bS,4aR)-3-(difluoromethyl)-5,5-difluoro-3b,4,4a,5-tetrahydro-1H-cyclopropa[3,4]cyclopenta[1,2-c]pyrazol-1-yl)acetamide], the EC50 in data set [1] amounted to 0.047 nM.

For the compound `Cn1nc(NS(C)(=O)=O)c2c(Cl)ccc(-n3c([C@H](Cc4cc(F)cc(F)c4)NC(=O)Cn4nc(C(F)F)c5c4C(F)(F)[C@@H]4C[C@H]54)nc4cc(-c5ncc(F)cc5Cl)ccc4c3=O)c21` (atropisomer, axis not shown; (P)) [Example 10, N—((S)-1-((3P)-3-(4-chloro-1-methyl-3-(methylsulfonamido)-1H-indazol-7-yl)-7-(3-chloro-5-fluoropyridin-2-yl)-4-oxo-3,4-dihydroquinazolin-2-yl)-2-(3,5-difluorophenyl)ethyl)-2-((3bS,4aR)-3-(difluoromethyl)-5,5-difluoro-3b,4,4a,5-tetrahydro-1H-cyclopropa[3,4]cyclopenta[1,2-c]pyrazol-1-yl)acetamide], the EC50 in data set [1] is 0.11 nM.
